Tests used:
5-HT1D receptor = target: T1, 5-HT1D receptor (Homo sapiens, UniProt P28221); experiment: Binding affinity, inhibition of 3H-serotonin binding to membranes of cells expressing the 5-HT1D receptor; details: for inhibition at 0.1 µM: 100 nM of test compound, 3H-serotonin 1 nM, 60 minute incubation at 22° C., read-out: affinity for the 5-HT1D receptor: amount (in percent) of binding of the radioligand that is inhibited; for binding at the 5-HT1D receptor (in words): at a concentration of 100 nM
T1 construct: expressed in transfected cells
Protocol: (§1) Selected compounds of the previous examples, as well as reference compounds were evaluated for binding affinity using cell types receptive specifically to 5-HT1D and 5-HT1B ligands. The assay protocol generally entailed the incubation of membranes prepared f cells expressing the 5-HT1D or 5-HT1B subtype of 5-HT receptors with ^3 H serotonin (1 nM for 5-HT1 D and 2.5 nM for 5-HT1B). Specific concentrations of the test compound were incubated with the radioligand and the membrane homogenates prepared from the recombinant cells. After a 60 minute incubation at 22° C., the incubation was terminated by vacuum filtration. The filters were washed with buffer and counted for radioactivity using liquid scintillation spectroscopy. The affinity of the test compound for the 5-HT1D receptor is expressed as the amount (in percent) of binding of the radioligand that is inhibited in the presence of 100 nM of test compound. A greater percent inhibition indicates greater affinity for the 5-HT1D receptor.

5-HT1B receptor = target: T2, 5-HT1B receptor (Homo sapiens, UniProt P28222); experiment: Binding affinity, inhibition of 3H-serotonin binding to membranes of cells expressing the 5-HT1B receptor; details: for binding at the 5-HT1B receptor (in words): at a concentration of 100 nM; for inhibition at 0.1 µM: 100 nM of test compound, 3H-serotonin 2.5 nM, 60 minute incubation at 22° C., read-out: affinity for the 5-HT1B receptor (percent inhibition of radioligand binding)
T2 construct: expressed in transfected cells
Protocol: as §1

T1 sequence (P28221 whole entry): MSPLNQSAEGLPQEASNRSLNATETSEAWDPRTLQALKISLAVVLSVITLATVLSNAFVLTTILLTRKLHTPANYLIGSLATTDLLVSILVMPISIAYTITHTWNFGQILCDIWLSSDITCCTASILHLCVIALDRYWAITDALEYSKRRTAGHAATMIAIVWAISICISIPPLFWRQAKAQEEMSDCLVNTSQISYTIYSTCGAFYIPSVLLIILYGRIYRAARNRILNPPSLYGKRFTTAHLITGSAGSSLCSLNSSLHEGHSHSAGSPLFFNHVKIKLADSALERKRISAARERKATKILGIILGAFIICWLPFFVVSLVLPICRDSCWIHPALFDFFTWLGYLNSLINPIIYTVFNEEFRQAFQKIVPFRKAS
T2 sequence (P28222 whole entry): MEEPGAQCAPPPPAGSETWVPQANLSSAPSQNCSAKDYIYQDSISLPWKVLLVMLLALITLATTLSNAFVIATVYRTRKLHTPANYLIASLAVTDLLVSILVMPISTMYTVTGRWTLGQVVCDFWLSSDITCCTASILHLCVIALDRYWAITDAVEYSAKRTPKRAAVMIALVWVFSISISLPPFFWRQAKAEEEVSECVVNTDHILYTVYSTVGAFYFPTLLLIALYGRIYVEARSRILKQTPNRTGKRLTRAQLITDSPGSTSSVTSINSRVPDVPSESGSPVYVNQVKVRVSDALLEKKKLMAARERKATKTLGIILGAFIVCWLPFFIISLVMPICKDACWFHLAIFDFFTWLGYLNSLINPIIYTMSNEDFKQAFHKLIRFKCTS

Structure (SMILES) | inhibition at 0.1 µM (5-HT1D receptor) | binding at the 5-HT1D receptor (in words) (5-HT1D receptor) | binding at the 5-HT1B receptor (in words) (5-HT1B receptor) | inhibition at 0.1 µM (5-HT1B receptor)
CN(C)CCc1c[nH]c2ccc(C3(O)CCN4CCCC4C3)cc12 (single isomer, unassigned) [Example 6c, 5-[(7-R or S)(8a-R,S)-7-Hydroxyoctahydroindolizin-7-yl]-3-[2-(N,N-dimethylamino)ethyl]indole] | > 90% | – | – | –
CN1CCC[C@H]1Cc1c[nH]c2ccc(C3CCN4CCCC4C3)cc12 (single isomer, unassigned) [Example 8a, 5-[(7R or 7S)(8a-R,S)-Octahydroindolizin-7-yl]-3-{[(2S)-N-methylpyrrolidin-2-yl]methyl}-1 H-indole] | – | little, if any, binding | little, if any, binding | –
CN1CCC[C@H]1Cc1c[nH]c2ccc(C3CCN4CCCC4C3)cc12 (single isomer, unassigned) [Example 8b, 5-[(7R or 7S)(8a-R,S)-Octahydroindolizin-7-yl] 3-{[(2S)-N-methylpyrrolidin-2-yl]methyl}-1 H-indole] | – | little, if any, binding | little, if any, binding | –
CN1CCC[C@H]1Cc1c[nH]c2ccc(C3(O)CCN4CCCC4C3)cc12 (stereo partly drawn) [Example 6a, 5-[(7-R,S)(8a-R,S)-7-Hydroxyoctahydroindolizin-7-yI]-3-{[(2S)-N-methylpyrrolidin-2-yl]methyl}-1 H-indole] | – | little, if any, binding | little, if any, binding | –
CN1CCC[C@@H]1Cc1c[nH]c2ccc(C3(O)CCN4CCCC4C3)cc12 (stereo partly drawn) [Example 6b, 5-[(7-R,S)(8a-R,S)-7-Hydroxyoctahydroindolizin-7-yl]-3-{[(2R)-N-methylpyrrolidin-2-yl]methyl}-1H-indole] | – | – | – | < 30%
CN1CCC[C@H]1Cc1c[nH]c2ccc(C3=CC4CCCN4CC3)cc12 (stereo partly drawn) [Example 7a, 5-[(8a-R,S)-1,2,3,5,6,8a-Hexahydroindolizin-7-yl]-3-{[(2S)-N-methylpyrrolidin-2-yl]methyl}-1 H-indole] | – | little, if any, binding | little, if any, binding | –
CN1CCC[C@H]1Cc1c[nH]c2ccc(C3=CCN4CCCC4C3)cc12 (stereo partly drawn) [Example 7b, 5-[(8a-R,S)-1,2,3,5,8,8a-Hexahydroindolizin-7-yl]-3-{[(2S)-N-methylpyrrolidin-2-yl]methyl}-1 H-indole] | – | little, if any, binding | little, if any, binding | –
CN1CCC[C@@H]1Cc1c[nH]c2ccc(C3=CCN4CCCC4C3)cc12 (stereo partly drawn) [Example 7d, 5-[(8a-R,S)-1,2,3,5,8,8a-Hexahydroindolizin-7-yl]-3-{[(2R)-N-methylpyrrolidin-2-yl]methyl}-1H-indole] | > 90% | – | – | –
CN1CCC[C@@H]1Cc1c[nH]c2ccc(C3CCN4CCCC4C3)cc12 (stereo partly drawn) [Example 8c, 5-[(7-R,S)(8a-R,S)-Octahydroindolizin-7-yl]- -{[(2R)-N-methylpyrrolidin-2-yl]methyl}-1H-indole] | – | – | – | < 30%

Reference: patent publication US6329390A, “5-Bicycloindole compounds” (NPS Allelix Corp., priority 1998, dated 2001)
